Source: patent publication US10294202B2, “Pyrrolidinones as herbicides” (FMC Corporation, priority 2013, dated 2019)

Tests used:
ragweed = assay: Test C pre-/postemergence herbicide test; format: in vivo, Ambrosia elatior
Method in brief: (§1)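 Response scores range from 0, meaning no effect, to 100, meaning complete control, assigned visually by comparison with controls roughly two weeks (13 to 15 days) after spraying. Applications were made preemergence to seeded loam–sand soil and postemergence to 1- to 4-leaf plants.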

ryegrass, Italian = assay: Test A pre-/postemergence herbicide test; format: in vivo, Lolium multiflorum
Method in brief: (§2)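 Scoring was visual, relative to untreated controls, on a 0–100 scale after about 10 greenhouse days. Preemergence treatment used a directed soil spray over seeded loam/sand; postemergence treatment targeted one- to two-leaf plants of 2–10 cm.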

nutsedge, yellow = assay: Test C pre-/postemergence herbicide test; format: in vivo, Cyperus esculentus
Method in brief: as §1

barnyardgrass = assay: Test A pre-/postemergence herbicide test; format: in vivo, Echinochloa crus-galli
Method in brief: as §2

corn = assay: Test C pre-/postemergence herbicide test; format: in vivo, Zea mays
Method in brief: as §1

pigweed = assay: Test A pre-/postemergence herbicide test; format: in vivo, Amaranthus retroflexus
Method in brief: as §2

oat, wild = assay: Test C pre-/postemergence herbicide test; format: in vivo, Avena fatua; details: Postemergence
Method in brief: as §1

[1] = Postemergence, 31 g ai/ha, scale 0 to 100 (0 no effect, 100 complete control)
[2] = Postemergence, 62 g ai/ha, scale 0 (no effect) to 100 (complete control)
[3] = Postemergence, 125 g ai/ha, scale 0 to 100 (0 no effect, 100 complete control)
[4] = Postemergence, 250 g ai/ha, scale 0 to 100 (0 no effect, 100 complete control)
[5] = Preemergence, 62 g ai/ha, scale 0 to 100 (0 no effect, 100 complete control)
[6] = Preemergence, 125 g ai/ha, scale 0 to 100
[7] = Postemergence, 125 g ai/ha, visual rating on 0 to 100 scale (0 no effect, 100 complete control), approx. 10 days
[8] = Postemergence, 500 g ai/ha, 0 to 100 scale (0 no effect, 100 complete control)
[9] = Preemergence, 125 g ai/ha, 0 to 100 scale where 0 is no effect and 100 is complete control
[10] = Preemergence, 500 g ai/ha, visual rating on 0 to 100 scale (0 no effect, 100 complete control)
[11] = Preemergence, 31 g ai/ha, scale 0 to 100, 0 is no effect and 100 is complete control
[12] = 31 g ai/ha, scale 0 to 100 (0 no effect, 100 complete control)
[13] = 62 g ai/ha, scale 0 (no effect) to 100 (complete control)
[14] = 125 g ai/ha, scale 0 to 100 (0 no effect, 100 complete control)
[15] = 250 g ai/ha, scale 0 to 100 (0 no effect, 100 complete control)
[16] = Preemergence, 62 g ai/ha, scale 0 to 100
[17] = Preemergence, 125 g ai/ha, scale 0 to 100 (0 no effect, 100 complete control)
[18] = 125 g ai/ha, visual rating, 0 to 100 scale, 0 no effect, 100 complete control, approximately 10 days, preemergence
[19] = Postemergence, 125 g ai/ha, 0 to 100 scale, 0 no effect, 100 complete control
[20] = preemergence, 500 g ai/ha, 0 to 100 scale

Compound | Plant response rating, Ragweed (ragweed; [1]) | Plant response rating, Ragweed (ragweed; [2]) | Plant response rating, Ragweed (ragweed; [3]) | Plant response rating, Ragweed (ragweed; [4]) | Plant response rating, Nutsedge, Yellow (nutsedge, yellow; [1]) | Plant response rating, Nutsedge, Yellow (nutsedge, yellow; [2]) | Plant response rating, Nutsedge, Yellow (nutsedge, yellow; [3]) | Plant response rating, Nutsedge, Yellow (nutsedge, yellow; [4]) | Nutsedge, Yellow plant response rating (nutsedge, yellow; [11]) | Plant response rating (scale of 0 to 100), Nutsedge, Yellow (nutsedge, yellow; Preemergence, 250 g ai/ha) | Plant response rating, Barnyardgrass (barnyardgrass; [8]) | Plant response rating, Corn (corn; [1]) | Plant response rating, Corn (corn; [2]) | Plant response rating, Corn (corn; [3]) | Plant response rating, Corn (corn; [4]) | Corn plant response rating (corn; [11]) | Plant response rating (scale of 0 to 100), Corn (corn; Preemergence, 250 g ai/ha) | Plant response rating, Oat, Wild (oat, wild; [12]) | Plant response rating, Oat, Wild (oat, wild; [13]) | Plant response rating, Oat, Wild (oat, wild; [14]) | other results
Cc1cccc(NC(=O)C2C(=O)NCC2c2cccc(C(F)(F)F)c2)c1 (stereo not drawn) [Compound 317] | 0 | 0 | 25 | 40 | 0 | 0 | 0 | 0 | 0 | 70 | 90 | 0 | 0 | 0 | 0 | 0 | 30 | 0 | 0 | 0 | Ragweed plant response rating (ragweed; [5]): 0; Plant response rating, Ragweed (ragweed; [6]): 0; Plant response rating, Ryegrass, Italian (ryegrass, Italian; [7]): 0; Plant response rating, Ryegrass, Italian (ryegrass, Italian; [8]): 0; Plant response rating, Ryegrass, Italian (ryegrass, Italian; [9]): 0; Ryegrass, Italian plant response rating (ryegrass, Italian; [10]): 0; Nutsedge, Yellow plant response rating (nutsedge, yellow; [5]): 0; Plant response rating, Nutsedge, Yellow (nutsedge, yellow; [6]): 20; Plant response rating, Barnyardgrass (barnyardgrass; [7]): 80; Plant response rating, Barnyardgrass (barnyardgrass; [9]): 90; Barnyardgrass plant response rating (barnyardgrass; [10]): 90; Corn plant response rating (corn; [5]): 0; Plant response rating, Corn (corn; [6]): 25; Plant response rating, Pigweed (pigweed; [7]): 0; Plant response rating, Pigweed (pigweed; [8]): 0; Plant response rating, Pigweed (pigweed; [9]): 0; Pigweed plant response rating (pigweed; [10]): 0; Plant response rating, Oat, Wild (oat, wild; [15]): 0
O=C1NCC(c2ccc(F)cc2)C1C(=O)Nc1cccc(F)c1F (racemic) [Compound 119] | 20 | 0 | 45 | 25 | 0 | 0 | 0 | 0 | 0 | 0 | 90 | 0 | 0 | 0 | 5 | 0 | 45 | 0 | 0 | 0 | Ragweed plant response rating (ragweed; [11]): 60; Plant response rating, Ragweed (ragweed; [16]): 35; Plant response rating, Ragweed (ragweed; [17]): 75; Plant response rating (scale of 0 to 100), Ragweed (ragweed; Preemergence, 250 g ai/ha): 80; Plant response rating, Ryegrass, Italian (ryegrass, Italian; [18]): 20; Plant response rating, Ryegrass, Italian (ryegrass, Italian; [19]): 20; Ryegrass, Italian plant response rating (0 to 100 scale, 0 is no effect, 100 is complete control) (ryegrass, Italian; Postemergence, 500 g ai/ha): 40; Plant response rating, Ryegrass, Italian (ryegrass, Italian; [20]): 60; Plant response rating, Nutsedge, Yellow (nutsedge, yellow; [16]): 0; Plant response rating, Nutsedge, Yellow (nutsedge, yellow; [17]): 0; Plant response rating, Barnyardgrass (barnyardgrass; [18]): 90; Plant response rating, Barnyardgrass (barnyardgrass; [19]): 90; Plant response rating, Barnyardgrass (barnyardgrass; preemergence, 500 g ai/ha, 0 to 100 scale (0 no effect, 100 complete control)): 90; Plant response rating, Corn (corn; [16]): 0; Plant response rating, Corn (corn; [17]): 15; Plant response rating, Pigweed (pigweed; [18]): 30; Plant response rating, Pigweed (pigweed; [19]): 30; Pigweed plant response rating (0 to 100 scale, 0 is no effect, 100 is complete control) (pigweed; Postemergence, 500 g ai/ha): 30; Plant response rating, Pigweed (pigweed; [20]): 40; Plant response rating, Oat, Wild (oat, wild; [15]): 0
O=C1NCC(c2cccc(C(F)(F)F)c2)C1C(=O)Nc1ccc(F)c(F)c1F (stereo not drawn) [Compound 315] | 0 | 20 | 65 | 70 | 0 | 0 | 0 | 0 | 0 | 20 | 90 | 0 | 0 | 10 | 60 | 50 | 85 | 0 | 0 | 0 | Ragweed plant response rating (ragweed; [5]): 20; Plant response rating, Ragweed (ragweed; [6]): 50; Plant response rating (scale of 0 to 100), Ragweed (ragweed; Preemergence, 250 g ai/ha): 80; Plant response rating, Ryegrass, Italian (ryegrass, Italian; [7]): 20; Plant response rating, Ryegrass, Italian (ryegrass, Italian; [8]): 50; Plant response rating, Ryegrass, Italian (ryegrass, Italian; [9]): 40; Ryegrass, Italian plant response rating (ryegrass, Italian; [10]): 70; Nutsedge, Yellow plant response rating (nutsedge, yellow; [5]): 0; Plant response rating, Nutsedge, Yellow (nutsedge, yellow; [6]): 20; Plant response rating, Barnyardgrass (barnyardgrass; [7]): 90; Plant response rating, Barnyardgrass (barnyardgrass; [9]): 90; Barnyardgrass plant response rating (barnyardgrass; [10]): 90; Corn plant response rating (corn; [5]): 80; Plant response rating, Corn (corn; [6]): 80; Plant response rating, Pigweed (pigweed; [7]): 30; Plant response rating, Pigweed (pigweed; [8]): 50; Plant response rating, Pigweed (pigweed; [9]): 30; Pigweed plant response rating (pigweed; [10]): 30; Plant response rating, Oat, Wild (oat, wild; [15]): 0
